Experimental data published in ChEMBL document CHEMBL5131569, “SAGE-718: A First-in-Class N-Methyl-d-Aspartate Receptor Positive Allosteric Modulator for the Potential Treatment of Cognitive Impairment” (J Med Chem, 2022).

Columns and labels:
[1] = Metabolic stability in mouse liver microsomes assessed as intrinsic clearance at 10 uM preincubated for 5 mins followed by NADPH addition and measured upto 65 mins by LC-MS/MS analysis; assay type: ADME, Microsome; details: time < 70 min, read-out: CLH
[2] = Metabolic stability in rat hepatocytes assessed as clearance at 10 uM measured upto 120 mins by LC-MS/MS analysis; assay type: ADME, cell-based, Hepatocyte; details: 2 h
[3] = Metabolic stability in monkey hepatocytes assessed as clearance at 10 uM measured upto 120 mins by LC-MS/MS analysis; assay type: ADME, cell-based, Macaca mulatta, Hepatocyte; details: rhesus monkey, 2 h
[4] = Metabolic stability in human hepatocytes assessed as clearance at 10 uM measured upto 120 mins by LC-MS/MS analysis; assay type: ADME, cell-based, Hepatocyte; details: 2 h
[5] = Metabolic stability in human liver microsomes assessed as intrinsic clearance at 10 uM preincubated for 5 mins followed by NADPH addition and measured upto 65 mins by LC-MS/MS analysis; assay type: ADME, Microsome; details: time < 70 min, read-out: CLH
[6] = Clearance in Sprague-Dawley rat by LC-MS/MS analysis; assay type: ADME; details: in vivo
[7] = Oral bioavailability in Sprague-Dawley rat by LC-MS/MS analysis; assay type: ADME, organism-based; details: in vivo
Cytochrome P450 1A2 = molecular target: T1, Cytochrome P450 1A2 (Homo sapiens, UniProt P05177); assay: Inhibition of CYP1A2 (unknown origin); assay type: ADME
T1 sequence (P05177 whole entry): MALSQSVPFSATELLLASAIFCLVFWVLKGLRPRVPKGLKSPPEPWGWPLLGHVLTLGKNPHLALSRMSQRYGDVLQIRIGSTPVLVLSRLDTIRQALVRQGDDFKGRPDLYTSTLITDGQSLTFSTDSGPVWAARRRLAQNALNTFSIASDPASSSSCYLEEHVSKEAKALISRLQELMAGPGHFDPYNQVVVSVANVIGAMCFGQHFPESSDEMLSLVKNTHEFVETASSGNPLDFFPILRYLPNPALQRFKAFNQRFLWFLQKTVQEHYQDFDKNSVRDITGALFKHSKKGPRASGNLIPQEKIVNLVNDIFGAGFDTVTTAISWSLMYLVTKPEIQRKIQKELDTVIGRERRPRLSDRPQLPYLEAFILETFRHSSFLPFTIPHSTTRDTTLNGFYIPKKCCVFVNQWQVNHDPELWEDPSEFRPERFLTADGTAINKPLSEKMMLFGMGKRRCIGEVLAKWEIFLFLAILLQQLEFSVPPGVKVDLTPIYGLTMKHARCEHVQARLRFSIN

Cytochrome P450 2B6 = molecular target: T2, Cytochrome P450 2B6 (Homo sapiens, UniProt P20813); assay: Inhibition of CYP2B6 (unknown origin); assay type: ADME
T2 sequence (P20813 whole entry): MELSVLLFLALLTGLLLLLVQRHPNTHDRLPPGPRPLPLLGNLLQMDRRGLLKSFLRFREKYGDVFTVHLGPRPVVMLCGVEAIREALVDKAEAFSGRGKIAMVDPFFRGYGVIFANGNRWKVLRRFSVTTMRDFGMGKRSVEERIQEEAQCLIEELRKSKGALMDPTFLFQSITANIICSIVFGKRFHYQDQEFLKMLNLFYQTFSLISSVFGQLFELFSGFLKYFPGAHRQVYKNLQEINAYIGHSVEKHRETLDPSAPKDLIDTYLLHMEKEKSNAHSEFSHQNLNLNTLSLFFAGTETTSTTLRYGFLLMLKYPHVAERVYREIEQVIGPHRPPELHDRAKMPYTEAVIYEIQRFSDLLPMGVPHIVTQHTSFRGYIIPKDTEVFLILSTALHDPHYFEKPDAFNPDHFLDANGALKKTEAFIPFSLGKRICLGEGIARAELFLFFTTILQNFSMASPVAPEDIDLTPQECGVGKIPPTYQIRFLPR

Cytochrome P450 2C19 = Cytochrome P450 2C19 (Homo sapiens, UniProt P33261); assay: Inhibition of CYP2C19 (unknown origin); assay type: ADME
Cytochrome P450 2C19, sequence (P33261 whole entry): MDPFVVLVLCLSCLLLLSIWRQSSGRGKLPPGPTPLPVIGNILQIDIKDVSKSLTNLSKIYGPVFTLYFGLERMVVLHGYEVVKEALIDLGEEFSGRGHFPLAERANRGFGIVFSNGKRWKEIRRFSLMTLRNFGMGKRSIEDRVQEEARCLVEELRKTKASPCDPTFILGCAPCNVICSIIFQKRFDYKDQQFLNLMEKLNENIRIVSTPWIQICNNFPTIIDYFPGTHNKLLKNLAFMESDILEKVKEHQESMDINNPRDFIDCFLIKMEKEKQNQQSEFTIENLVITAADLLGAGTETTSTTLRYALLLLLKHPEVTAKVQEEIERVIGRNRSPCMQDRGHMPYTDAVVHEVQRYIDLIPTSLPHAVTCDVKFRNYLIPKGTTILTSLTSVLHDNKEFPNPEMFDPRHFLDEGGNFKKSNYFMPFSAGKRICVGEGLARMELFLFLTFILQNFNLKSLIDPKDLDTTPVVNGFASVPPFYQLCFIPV

Cytochrome P450 2D6 = Cytochrome P450 2D6 (Homo sapiens, UniProt P10635); assay: Inhibition of CYP2D6 (unknown origin); assay type: ADME
Cytochrome P450 2D6, sequence (P10635 whole entry): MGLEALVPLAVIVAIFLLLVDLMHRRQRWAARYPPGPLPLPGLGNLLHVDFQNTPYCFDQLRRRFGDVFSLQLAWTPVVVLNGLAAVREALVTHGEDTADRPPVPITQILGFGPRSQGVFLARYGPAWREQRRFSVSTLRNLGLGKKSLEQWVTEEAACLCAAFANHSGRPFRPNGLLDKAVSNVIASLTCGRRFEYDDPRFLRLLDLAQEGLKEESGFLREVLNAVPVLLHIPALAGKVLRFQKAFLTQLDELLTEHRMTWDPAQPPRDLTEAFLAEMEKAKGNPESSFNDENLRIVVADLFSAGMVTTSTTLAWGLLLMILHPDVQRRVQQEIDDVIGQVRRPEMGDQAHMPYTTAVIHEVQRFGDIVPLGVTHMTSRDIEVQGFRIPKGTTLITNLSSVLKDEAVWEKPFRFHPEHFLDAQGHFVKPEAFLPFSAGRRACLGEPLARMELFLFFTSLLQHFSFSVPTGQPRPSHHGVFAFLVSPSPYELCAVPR

[8] = Plasma protein binding in dog after 15 mins by equilibrium dialysis method; assay type: ADME, cell-free, Canis lupus familiaris; details: read-out: PPB (converted)
[9] = molecular target: Sodium channel protein type 5 subunit alpha (Homo sapiens, UniProt Q14524); assay: Inhibition of NaV1.5 (unknown origin)
Sodium channel protein type 5 subunit alpha, sequence (Q14524 whole entry): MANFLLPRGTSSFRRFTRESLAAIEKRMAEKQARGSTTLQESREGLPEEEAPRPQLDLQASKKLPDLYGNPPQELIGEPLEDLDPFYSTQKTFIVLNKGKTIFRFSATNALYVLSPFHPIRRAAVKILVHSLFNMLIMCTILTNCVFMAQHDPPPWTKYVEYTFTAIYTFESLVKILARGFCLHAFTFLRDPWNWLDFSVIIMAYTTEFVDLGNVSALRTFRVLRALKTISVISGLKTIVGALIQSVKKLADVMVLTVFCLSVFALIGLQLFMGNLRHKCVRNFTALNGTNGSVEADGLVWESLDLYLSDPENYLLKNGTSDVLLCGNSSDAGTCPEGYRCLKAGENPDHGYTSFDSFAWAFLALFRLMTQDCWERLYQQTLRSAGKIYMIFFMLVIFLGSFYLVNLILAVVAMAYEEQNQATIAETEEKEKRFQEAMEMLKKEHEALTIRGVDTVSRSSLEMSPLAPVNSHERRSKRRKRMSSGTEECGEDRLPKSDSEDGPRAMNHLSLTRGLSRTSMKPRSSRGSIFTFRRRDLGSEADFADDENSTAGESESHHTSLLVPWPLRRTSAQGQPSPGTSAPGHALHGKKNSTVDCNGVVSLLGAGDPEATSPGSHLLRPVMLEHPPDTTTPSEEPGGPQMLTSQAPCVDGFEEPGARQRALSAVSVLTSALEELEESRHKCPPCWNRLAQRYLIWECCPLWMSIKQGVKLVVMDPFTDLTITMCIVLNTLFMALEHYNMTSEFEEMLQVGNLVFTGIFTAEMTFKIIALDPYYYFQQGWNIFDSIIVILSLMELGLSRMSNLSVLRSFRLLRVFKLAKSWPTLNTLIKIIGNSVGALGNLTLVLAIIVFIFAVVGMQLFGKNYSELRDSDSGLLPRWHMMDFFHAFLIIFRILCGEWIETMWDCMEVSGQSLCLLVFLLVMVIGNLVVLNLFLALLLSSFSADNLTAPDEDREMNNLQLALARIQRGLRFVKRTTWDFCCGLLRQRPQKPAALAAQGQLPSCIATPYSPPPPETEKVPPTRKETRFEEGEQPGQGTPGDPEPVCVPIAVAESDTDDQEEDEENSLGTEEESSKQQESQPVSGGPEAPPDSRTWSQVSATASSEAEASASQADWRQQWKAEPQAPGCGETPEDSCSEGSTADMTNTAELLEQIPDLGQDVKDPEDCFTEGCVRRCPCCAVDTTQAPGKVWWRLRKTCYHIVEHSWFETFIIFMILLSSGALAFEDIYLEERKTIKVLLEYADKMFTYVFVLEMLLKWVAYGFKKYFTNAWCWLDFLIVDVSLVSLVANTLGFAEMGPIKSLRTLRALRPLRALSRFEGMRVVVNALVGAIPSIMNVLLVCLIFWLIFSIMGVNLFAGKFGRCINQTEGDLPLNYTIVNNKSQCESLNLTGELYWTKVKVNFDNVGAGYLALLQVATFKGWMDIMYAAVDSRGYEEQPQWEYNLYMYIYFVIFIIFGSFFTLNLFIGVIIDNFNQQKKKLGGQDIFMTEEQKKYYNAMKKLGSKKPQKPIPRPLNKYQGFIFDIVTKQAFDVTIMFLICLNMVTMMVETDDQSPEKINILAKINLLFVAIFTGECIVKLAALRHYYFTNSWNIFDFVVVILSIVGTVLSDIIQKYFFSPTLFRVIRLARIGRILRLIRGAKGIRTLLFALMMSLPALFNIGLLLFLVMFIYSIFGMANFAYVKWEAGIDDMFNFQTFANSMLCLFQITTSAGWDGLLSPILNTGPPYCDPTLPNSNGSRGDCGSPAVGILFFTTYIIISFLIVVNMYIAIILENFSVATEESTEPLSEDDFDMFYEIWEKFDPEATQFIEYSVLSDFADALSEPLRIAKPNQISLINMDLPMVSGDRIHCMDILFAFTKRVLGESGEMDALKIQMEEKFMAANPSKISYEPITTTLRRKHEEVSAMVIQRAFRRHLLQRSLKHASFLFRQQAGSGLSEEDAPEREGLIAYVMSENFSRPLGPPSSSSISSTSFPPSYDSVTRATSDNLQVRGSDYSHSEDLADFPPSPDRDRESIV

[10] = molecular target: Voltage-gated inwardly rectifying potassium channel KCNH2 (Homo sapiens, UniProt Q12809); assay: Inhibition of human ERG; assay type: toxicity
Voltage-gated inwardly rectifying potassium channel KCNH2, sequence (Q12809 whole entry): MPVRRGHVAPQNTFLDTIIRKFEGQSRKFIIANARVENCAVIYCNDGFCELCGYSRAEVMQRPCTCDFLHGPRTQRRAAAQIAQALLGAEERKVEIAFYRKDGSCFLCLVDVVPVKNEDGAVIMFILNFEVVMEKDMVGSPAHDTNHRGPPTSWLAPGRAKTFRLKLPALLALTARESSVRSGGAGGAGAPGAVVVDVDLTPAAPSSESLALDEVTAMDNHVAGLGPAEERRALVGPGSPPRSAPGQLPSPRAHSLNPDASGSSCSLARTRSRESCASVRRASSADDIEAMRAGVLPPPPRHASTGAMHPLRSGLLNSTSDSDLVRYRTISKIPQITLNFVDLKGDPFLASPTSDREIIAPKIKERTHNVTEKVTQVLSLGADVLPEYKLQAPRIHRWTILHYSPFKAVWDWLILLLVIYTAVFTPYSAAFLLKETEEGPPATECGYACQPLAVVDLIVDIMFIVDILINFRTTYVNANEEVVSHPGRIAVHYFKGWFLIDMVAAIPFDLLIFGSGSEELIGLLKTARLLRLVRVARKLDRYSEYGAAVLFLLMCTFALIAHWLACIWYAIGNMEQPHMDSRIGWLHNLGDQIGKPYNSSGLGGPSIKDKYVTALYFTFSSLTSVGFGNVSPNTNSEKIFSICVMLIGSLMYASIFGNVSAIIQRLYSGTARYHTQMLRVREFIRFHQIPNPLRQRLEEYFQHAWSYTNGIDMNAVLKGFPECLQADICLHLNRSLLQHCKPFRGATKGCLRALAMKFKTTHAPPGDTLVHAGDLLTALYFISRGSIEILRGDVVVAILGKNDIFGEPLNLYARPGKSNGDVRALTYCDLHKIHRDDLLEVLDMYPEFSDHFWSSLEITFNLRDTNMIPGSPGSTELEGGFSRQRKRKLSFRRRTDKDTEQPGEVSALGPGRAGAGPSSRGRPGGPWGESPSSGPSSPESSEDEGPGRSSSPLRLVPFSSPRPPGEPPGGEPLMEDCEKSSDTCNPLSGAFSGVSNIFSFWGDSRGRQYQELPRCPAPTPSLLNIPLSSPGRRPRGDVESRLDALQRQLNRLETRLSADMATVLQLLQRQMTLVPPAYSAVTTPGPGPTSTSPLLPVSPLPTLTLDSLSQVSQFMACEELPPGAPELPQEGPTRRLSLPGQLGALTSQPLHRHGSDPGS

[11] = molecular target: Voltage-dependent L-type calcium channel subunit alpha-1C (Homo sapiens, UniProt Q13936); assay: Inhibition of CaV1.2 (unknown origin) by patch clamp method
[12] = molecular target: Ionotropic glutamate receptor NMDA 1/2C (Homo sapiens, UniProt Q05586+Q14957); assay: Positive allosteric modulation of recombinant human GluN1/GluN2C receptor stably expressed in HEK293 cells assessed as increase in glycine/L-glutamate-induced channel current at -70 mV holding potential by whole cell patch clamp method
Mus musculus [13] = assay: Reversal of DOI-induced hyperlocomotion in CD-1 mouse assessed as reduction in distance travel at 3 mg/kg, ip administered 90 mins prior to DOI induction and measured upto 30 mins post DOI treatment (reference value: 7.8 +/- 0.8 meter); assay type: functional; details: time <= 120 min, 2 h
Mus musculus [14] = assay: Reversal of DOI-induced hyperlocomotion in CD-1 mouse assessed as reduction in distance travel at 5 mg/kg, ip administered 90 mins prior to DOI induction and measured upto 30 mins post DOI treatment (reference value: 7.8 +/- 0.8 meter); assay type: functional; details: time <= 120 min, 2 h
Mus musculus [15] = assay: Reversal of DOI-induced hyperlocomotion in CD-1 mouse assessed as reduction in distance travel at 7.5 mg/kg, ip administered 90 mins prior to DOI induction and measured upto 30 mins post DOI treatment (reference value: 7.8 +/- 0.8 meter); assay type: functional; details: time <= 120 min, 2 h
Mus musculus [16] = assay: Reversal of DOI-induced hyperlocomotion in CD-1 mouse assessed as reduction in distance travel at 10 mg/kg, ip administered 90 mins prior to DOI induction and measured upto 30 mins post DOI treatment (reference value: 7.8 +/- 0.8 meter); assay type: functional; details: time <= 120 min, 2 h
Mus musculus [17] = assay: Reversal of DOI-induced hyperlocomotion in CD-1 mouse assessed as reduction in rearing at 3 mg/kg, ip administered 90 mins prior to DOI induction and measured upto 30 mins post DOI treatment (reference value: 59.8 +/- 8.6 Counts); assay type: functional; details: time <= 120 min, 2 h
Mus musculus [18] = assay: Reversal of DOI-induced hyperlocomotion in CD-1 mouse assessed as reduction in rearing at 7.5 mg/kg, ip administered 90 mins prior to DOI induction and measured upto 30 mins post DOI treatment (reference value: 59.8 +/- 8.6 Counts); assay type: functional; details: time <= 120 min, 2 h
Mus musculus [19] = assay: Reversal of DOI-induced hyperlocomotion in CD-1 mouse assessed as reduction in rearing at 10 mg/kg, ip administered 90 mins prior to DOI induction and measured upto 30 mins post DOI treatment (reference value: 59.8 +/- 8.6 Counts); assay type: functional; details: time <= 120 min, 2 h
[20] = Drug concentration in CD-1 mouse plasma at 3 mg/kg, ip administered for 90 mins; assay type: ADME, organism-based
[21] = Drug concentration in CD-1 mouse brain at 3 mg/kg, ip administered for 90 mins; assay type: ADME, organism-based; details: read-out: Ct
[22] = Drug concentration in CD-1 mouse brain at 5 mg/kg, ip administered for 90 mins; assay type: ADME, organism-based; details: read-out: Ct
[23] = Drug concentration in CD-1 mouse brain at 10 mg/kg, ip administered for 90 mins; assay type: ADME, organism-based; details: read-out: Ct

C[C@H](CC[C@](C)(O)C(F)(F)F)[C@H]1CC[C@H]2[C@@H]3CC=C4C[C@@](C)(O)CC[C@]4(C)[C@H]3CC[C@]12C [DALZANEMDOR]
microsomal CLint at 10 µM [1]: < 1 µL/min/mg
CLH [2]: 18.3 mL/min/kg
CLH [3]: 18.3 mL/min/kg
CLH [4]: 6.7 mL/min/kg
microsomal CLint at 10 µM [5]: 10 µL/min/mg
clearance [6]: 10 mL/min/kg
bioavailability [7]: 28%
IC50 (Cytochrome P450 1A2): > 100 µM
IC50 (Cytochrome P450 2B6): > 100 µM
IC50 (Cytochrome P450 2C19): > 100 µM
IC50 (Cytochrome P450 2D6): > 100 µM
fraction unbound at 0.25 h [8]: 0.028
IC50 [9]: > 30 µM
IC50 [10]: > 30 µM
IC50 [11]: > 30 µM
EC50 [12]: 0.15 µM
Activity (Mus musculus [13]): 6.9 m
Activity (Mus musculus [14]): 4.1 m
Activity (Mus musculus [15]): 0.4 m
Activity (Mus musculus [16]): 1.1 m
Activity (Mus musculus [17]): 52.9 Counts
Activity (Mus musculus [18]): 6.1 Counts
Activity (Mus musculus [19]): 7.7 Counts
concentration at 1.5 h [20]: 577 ng/mL
concentration at 1.5 h [21]: 490 ng/g
concentration at 1.5 h [22]: 894 ng/g
concentration at 1.5 h [23]: 1610 ng/g
